2 compounds from patent US6613317B1, “Volatile attractants for diabrotica species” (priority 1988, dated 2003) can be followed below.

The subject of test [1] is northern corn rootworm (NCR) adults. Put plainly: Sticky trap attraction in corn, estragole analogues (Example 3). In kind it is in vivo, Diabrotica barberi. As to conditions: 100 mg per trap, n = 4. The method in brief: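 Cotton wicks dosed with 100 mg or 100 μL attractant per trap on TangleTrap-coated cartons, four replicates 10 m apart on 1 m posts at field edges of hybrid or sweet corn. Mean beetles caught after ~24 h; log-transformed ANOVA with Duncan's test, P=0.05.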

Test [2] deals with D. u. howardi. The test can be described thus: Sticky trap attraction in prairie habitat, Trelease Woods (Example 2). In kind it is in vivo, Diabrotica undecimpunctata howardi. As to conditions: 100 mg per trap, n = 4. The method in brief: (§1)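 Lure-dosed cotton wicks (solids in acetone; untreated controls) on TangleTrap-coated cartons atop 1 m posts, four replicates 10 m apart in relict prairie, mid-August over two years. Read-out: mean beetles caught after 24-h; log-transformed ANOVA with Duncan's multiple range test.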

Another test has as its system D. v. virgifera. Described as above. In kind it is in vivo, Diabrotica virgifera virgifera. As to conditions: 100 mg per trap, n = 4. The method in brief: as §1
Test [3] has as its system D. u. howardi. Put plainly: Sticky trap attraction along hybrid corn, Pomology South Farms (Example 2). In kind it is in vivo, Diabrotica undecimpunctata howardi. As to conditions: 100 mg per trap, n = 4. The method in brief: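 Lures (>98% purity) dosed at 100 mg per trap on cotton wicks atop TangleTrap-coated 1.0 liter cartons, solids dissolved in acetone; untreated wicks as controls. Four replicates placed 10 m apart on 1 m posts along a 0.8 ha hybrid corn field; mean beetles caught after 24-h, log-transformed ANOVA with Duncan's test.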

For another test, the system named is D. cristata. Put plainly: Sticky trap attraction in prairie habitat, Trelease Woods (Example 2). In kind it is in vivo, Diabrotica cristata. The conditions noted are these: 100 mg per trap, n = 4. The method in brief:
as §1

In another test the test system is D. barberi. Described as above. In kind it is in vivo, Diabrotica barberi. The conditions noted are these: for Mean number of D. barberi per day (±standard deviation) / Mean number of D. barberi per sticky trap per day (±standard deviation): 100 mg per trap, n = 4. In outline: as §1

Marks after values point to notes of the source that are not given here.

With `OCC=Cc1ccccc1` [XVIII, cinnamyl alcohol], the “Mean number of NCR per sticky trap after 24 hours” value in test [1] (August 5 (Table 10)) is given as 8.7 ± 4.6^c per sticky trap. Moreover, the “Mean number of NCR (±standard deviation) per sticky trap after 24 hours” value in test [1] (August 7 (Table 11)) is listed as 8.5 ± 6.1^b per sticky trap; in test [1] (August 18 (Table 11)), 23.2 ± 5.9^c per sticky trap. For the same compound, the “Mean number of D. u. howardi per day (±standard deviation)” value in the test with D. u. howardi [2] (August 11, 1987) is listed as 0.3 ± 0.5^a per day; in the test with D. u. howardi [2] (August 14, 1987) it was 2.8 ± 1.7^b per day. In addition, the “Mean number of D. v. virgifera per day (±standard deviation)” value in the test with D. v. virgifera (August 11, 1987) was 0.0 per day; in the test on D. v. virgifera (August 14, 1987), 0.0^a per day. Moreover, the “Mean number of D. u. howardi per stick trap per day (±standard deviation) in corn” value in the test with D. u. howardi [3] (August 7) was 24.5 ± 13.6^b per stick trap per day; in the test on D. u. howardi [3] (August 18) it was 1.8 ± 1.3^b per stick trap per day. In addition, the “Mean number of D. cristata per day (±standard deviation)” value is given as 28.3 ± 5.3^c per day with D. cristata (August 11, 1987) and 20.5 ± 1.3^d per day with D. cristata (August 14, 1987). Moreover, the “Mean number of D. barberi per day (±standard deviation)” value in the test with D. barberi (August 11, 1987) is 16.5 ± 5.1^c per day; with D. barberi (August 14, 1987), 13.0 ± 12.8^bc per day. Also, the “activity for D. barberi relative to estragole” value in the test on D. barberi (prairie, Table 5) was determined as 5 times. For the same compound, in the test with D. barberi (prairie, Table 5), the “activity for D. barberi relative to the TIC mixture” value is listed as “ca. 3.5 times”.

As to `C=CCc1ccc(O)c(OC)c1` [XXIV, eugenol], the “Mean number of NCR (±standard deviation) per sticky trap after 24 hours” value was 5.7 ± 2.2^b per sticky trap in test [1] (August 7 (Table 11)) and 16.5 ± 5.7^b per sticky trap in test [1] (August 18 (Table 11)). Further, the “Mean number of D. u. howardi per day (±standard deviation)” value is 0.0^a per day with D. u. howardi [2] (August 11, 1987) and 0.0^a per day with D. u. howardi [2] (August 14, 1987). The “Mean number of D. u. howardi per sticky trap per day (±standard deviation)” value is recorded as 0.3 ± 0.5^a per sticky trap per day in the test with D. u. howardi [2] (August 18, first year); 0.8 ± 0.5^a per sticky trap per day with D. u. howardi [2] (August 20, first year); 0.3 ± 0.5^a per sticky trap per day in the test on D. u. howardi [2] (August 27, first year). Further, the “Mean number of D. v. virgifera per day (±standard deviation)” value is 0.3 ± 0.5^a per day in the test on D. v. virgifera (August 11, 1987) and 0.0^a per day in the test with D. v. virgifera (August 14, 1987). For the same compound, the “Mean number of D. v. virgifera per sticky trap per day (±standard deviation)” value in the test with D. v. virgifera (August 18, first year) is 0.3 ± 0.5^a per sticky trap per day; in the test with D. v. virgifera (August 20, first year) it was 0 per sticky trap per day; in the test on D. v. virgifera (August 27, first year), 0 per sticky trap per day. Further, the “Mean number of D. u. howardi per stick trap per day (±standard deviation) in corn” value is recorded as 6.3 ± 1.0^a per stick trap per day with D. u. howardi [3] (August 7) and 0.0^a per stick trap per day in the test on D. u. howardi [3] (August 18). For the same compound, the “Mean number of D. cristata per day (±standard deviation)” value in the test with D. cristata (August 11, 1987) is reported as 39.5 ± 9.4^c per day; in the test on D. cristata (August 14, 1987) it was 20.0 ± 8.4^cd per day. Moreover, the “Mean number of D. cristata per sticky trap per day (±standard deviation)” value in the test with D. cristata (August 18, first year) is recorded as 11.5 ± 8.6^b per sticky trap per day; in the test on D. cristata (August 20, first year), 15.5 ± 7.9^c per sticky trap per day; in the test with D. cristata (August 27, first year) it was 3.5 ± 3.3^b per sticky trap per day. For the same compound, the “Mean number of D. barberi per day (±standard deviation)” value with D. barberi (August 11, 1987) is listed as 9.5 ± 8.3^bc per day; in the test on D. barberi (August 14, 1987), 8.3 ± 3.3^c per day. In addition, the “Mean number of D. barberi per sticky trap per day (±standard deviation)” value in the test on D. barberi (August 18, first year) was 21.8 ± 7.3^b per sticky trap per day; in the test on D. barberi (August 20, first year), 22.5 ± 13.2^c per sticky trap per day; in the test with D. barberi (August 27, first year) it was 10.5 ± 4.8^b per sticky trap per day. For the same compound, the “activity for D. barberi relative to estragole” value in the test with D. barberi (prairie, Table 5) is 2 times.
